Experimental data published in patent publication EP0242855A2, “Crosslinking reaction inhibitor for collagen” (priority 1986, dated 1987).
“And” between values parts separate entries of the source, which are not always exact repeats. Equal entries are not always repeated. Where two headings read alike, the source gives them in different places.

Key:
[1] = target: T1, collagen (Gallus gallus, UniProt P02457+P02467); assay type: biochemical, spring chicken
T1 construct: collagen obtained by grinding and deliming the bone of a spring chicken; from tissue; host or cells: bone of a spring chicken, ground and delimed (demineralised)
T1 sequence (P02467 78-1363): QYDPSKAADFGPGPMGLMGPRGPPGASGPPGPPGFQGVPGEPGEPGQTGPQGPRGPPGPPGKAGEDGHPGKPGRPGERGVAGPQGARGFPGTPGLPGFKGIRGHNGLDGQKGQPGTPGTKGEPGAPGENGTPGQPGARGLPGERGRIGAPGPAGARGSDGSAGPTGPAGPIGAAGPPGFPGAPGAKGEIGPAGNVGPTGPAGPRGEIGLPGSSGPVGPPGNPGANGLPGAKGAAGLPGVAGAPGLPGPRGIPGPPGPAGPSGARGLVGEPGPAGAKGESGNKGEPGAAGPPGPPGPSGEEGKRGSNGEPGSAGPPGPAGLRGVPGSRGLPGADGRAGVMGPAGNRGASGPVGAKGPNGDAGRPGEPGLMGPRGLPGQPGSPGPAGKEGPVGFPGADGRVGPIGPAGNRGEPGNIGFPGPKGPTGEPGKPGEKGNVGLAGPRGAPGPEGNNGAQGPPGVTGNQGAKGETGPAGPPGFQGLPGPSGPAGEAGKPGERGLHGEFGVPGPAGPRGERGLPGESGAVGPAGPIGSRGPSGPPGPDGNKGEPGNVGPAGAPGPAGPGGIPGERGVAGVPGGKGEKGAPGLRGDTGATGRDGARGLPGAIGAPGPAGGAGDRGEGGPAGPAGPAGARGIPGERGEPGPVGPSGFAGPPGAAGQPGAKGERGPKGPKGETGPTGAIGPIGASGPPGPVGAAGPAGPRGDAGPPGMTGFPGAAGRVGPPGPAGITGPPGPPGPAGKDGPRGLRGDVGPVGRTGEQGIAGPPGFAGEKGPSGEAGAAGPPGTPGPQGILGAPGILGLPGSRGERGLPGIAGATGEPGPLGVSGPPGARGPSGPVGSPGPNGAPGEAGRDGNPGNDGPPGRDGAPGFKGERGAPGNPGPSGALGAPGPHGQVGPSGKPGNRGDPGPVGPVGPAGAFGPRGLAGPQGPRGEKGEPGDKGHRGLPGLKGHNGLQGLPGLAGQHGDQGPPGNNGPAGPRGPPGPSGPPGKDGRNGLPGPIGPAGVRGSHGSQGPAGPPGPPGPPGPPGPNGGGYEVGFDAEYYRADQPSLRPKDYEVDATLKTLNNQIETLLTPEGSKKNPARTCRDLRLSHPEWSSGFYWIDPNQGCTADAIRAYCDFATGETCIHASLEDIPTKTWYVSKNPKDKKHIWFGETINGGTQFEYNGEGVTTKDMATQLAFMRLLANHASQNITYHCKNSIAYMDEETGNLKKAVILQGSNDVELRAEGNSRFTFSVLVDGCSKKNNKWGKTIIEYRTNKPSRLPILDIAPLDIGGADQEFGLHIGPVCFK
T1 sequence (P02457 152-1207): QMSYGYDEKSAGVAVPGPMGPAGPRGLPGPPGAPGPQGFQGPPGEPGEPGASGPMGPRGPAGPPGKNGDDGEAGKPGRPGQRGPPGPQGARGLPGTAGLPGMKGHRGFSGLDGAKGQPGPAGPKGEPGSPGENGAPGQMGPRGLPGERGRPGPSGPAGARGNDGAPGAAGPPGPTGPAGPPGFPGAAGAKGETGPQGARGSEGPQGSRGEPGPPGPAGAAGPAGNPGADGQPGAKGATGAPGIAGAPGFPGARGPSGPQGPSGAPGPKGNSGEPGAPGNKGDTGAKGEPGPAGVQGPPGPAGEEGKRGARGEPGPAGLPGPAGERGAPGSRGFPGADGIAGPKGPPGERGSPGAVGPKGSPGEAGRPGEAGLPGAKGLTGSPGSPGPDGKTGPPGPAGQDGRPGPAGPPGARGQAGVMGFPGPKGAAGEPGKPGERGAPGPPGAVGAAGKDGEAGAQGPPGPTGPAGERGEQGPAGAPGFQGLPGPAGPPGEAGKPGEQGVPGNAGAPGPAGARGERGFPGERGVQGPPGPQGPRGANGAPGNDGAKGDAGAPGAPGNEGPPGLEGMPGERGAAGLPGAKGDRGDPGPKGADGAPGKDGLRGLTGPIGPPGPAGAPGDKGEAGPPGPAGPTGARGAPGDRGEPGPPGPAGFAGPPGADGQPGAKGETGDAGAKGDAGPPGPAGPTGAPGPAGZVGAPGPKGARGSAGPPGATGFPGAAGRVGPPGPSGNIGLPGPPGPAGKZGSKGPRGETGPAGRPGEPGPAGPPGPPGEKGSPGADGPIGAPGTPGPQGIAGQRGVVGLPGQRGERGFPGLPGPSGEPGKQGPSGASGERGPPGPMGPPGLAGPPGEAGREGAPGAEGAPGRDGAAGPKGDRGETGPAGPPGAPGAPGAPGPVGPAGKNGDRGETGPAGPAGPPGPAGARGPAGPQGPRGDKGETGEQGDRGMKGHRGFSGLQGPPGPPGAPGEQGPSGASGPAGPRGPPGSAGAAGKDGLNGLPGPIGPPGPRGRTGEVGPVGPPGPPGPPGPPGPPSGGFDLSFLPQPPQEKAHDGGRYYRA

[2] = LD50 safety data, rat subcutaneous treatment; settings: in vivo, sc
Description: The silicon compound used in the present invention involves no problem with respect to safety. Shown below are data as to the safety of the silicon compounds.

[3] = silicon compound 0.01 %, collagen 100 mg, glucose 0.2 M, pH 7.4, 37 C, 4 weeks
[4] = silicon compound 0.01 %, collagen 100 mg, glucose 0.2 M, pH 7.4, 37 C, 4 weeks, solubilized by cutting with CNBr
[5] = silicon compound 0.05 %, collagen 100 mg, glucose 0.2 M, pH 7.4, 37 C, 4 weeks
[6] = silicon compound 0.05 %, collagen 100 mg, glucose 0.2 M, pH 7.4, 37 C, 4 weeks, solubilized by cutting with CNBr
[7] = silicon compound 0.1 %, collagen 100 mg, glucose 0.2 M, pH 7.4, 37 C, 4 weeks

O[Si](O)(O)C1CCCCC1 [Cyclohexyl silanetriol, cyclohexyl silanetriol]
Portion A/ portion B [1, 3]: 0.42 | Soluble collagen (%) [1, 4]: 68% | Portion A/ portion B [1, 5]: 0.45 | Soluble collagen (%) [1, 6]: 73%

C[Si](O)(O)O[Si](C)(O)O [Dimer of methyl silnetriol]
Portion A/ portion B [1, 3]: 0.35 | Soluble collagen (%) [1, 4]: 80% | Portion A/ portion B [1, 5]: 0.40 | Soluble collagen (%) [1, 6]: 75%

C[Si](C)(O)O [Dimethyl silanediol, dimethyl silanediol]
Portion A/ portion B [1, 3]: 0.43 | Portion A/ portion B [1, 7]: 0.35

O[Si](O)(O)c1ccccc1 [Phenyl silanetriol]
Portion A/ portion B [1, 3]: 0.40 | Soluble collagen (%) [1, 4]: 70% | Portion A/ portion B [1, 5]: 0.41 | Soluble collagen (%) [1, 6]: 72%

C[Si](O)(O)O [Methyl silanetriol, methyl silanetriol]
LD50 [2]: ≥ 1000 mg/kg | crosslinking and polymerization of collagen ([1]; addition of 0.01 to 0.1%): inhibits the crosslinking and polymerization of collagen | Soluble collagen (%) ([1]; pH 7.4): 50% and 81% and 86% and 76% and 54% | Portion A/ portion B ([1]; silicon compound 0.003 %, collagen 100 mg, glucose 0.2 M, pH 7.4, 37 C, 4 weeks): 0.55 | Portion A/ portion B [1, 3]: 0.40 | Portion A/ portion B ([1]; silicon compound 0.03 %, collagen 100 mg, glucose 0.2 M, pH 7.4, 37 C, 4 weeks): 0.35 | Portion A/ portion B [1, 7]: 0.40 | Portion A/ portion B ([1]; silicon compound 0.3 %, collagen 100 mg, glucose 0.2 M, pH 7.4, 37 C, 4 weeks): 0.54

CCCCCCCCCCCC[Si](O)(O)O [Dodecyl silanetriol, dodecyl silanetriol]
Portion A/ portion B [1, 3]: 0.45 | Soluble collagen (%) [1, 4]: 68% | Portion A/ portion B [1, 5]: 0.44 | Soluble collagen (%) [1, 6]: 72%

CC=C[Si](O)(O)O [Propenyl silanetriol, propenyl silanetriol]
Portion A/ portion B [1, 3]: 0.45 | Soluble collagen (%) [1, 4]: 71% | Portion A/ portion B [1, 7]: 0.39 | Soluble collagen (%) ([1]; silicon compound 0.1 %, collagen 100 mg, glucose 0.2 M, pH 7.4, 37 C, 4 weeks, solubilized by cutting with CNBr): 72%
